Where two headings read alike, the source gives them in different places.
What was measured:
[1] = tested on: C. Paracrusei 45; experiment: microbe, parasite or virus in culture; format: cell-based; details: for MBC: read-out: Concentration from which subcultures no longer started; for MIC: read-out: Minimum inhibiting concentration (MHK), series dilution test
[2] = in vivo; details: mouse
[3] = tested on: streptococci group A 807; experiment: microbe, parasite or virus in culture; format: cell-based; details: for MIC: read-out: Minimum inhibiting concentration (MHK), series dilution test
[4] = tested on: C. Albicans 49; experiment: microbe, parasite or virus in culture; format: cell-based; details: Candida albicans; for MIC: read-out: Minimum inhibiting concentration (MHK), series dilution test
[5] = tested on: Trichomonas foetus; experiment: Infection tests with Trichomonas foetus in mice; format: in vivo; details: for % of Animals Dying After Infection (Mean Value): stomach tube, 3 successive days, NMRI mice
[6] = tested on: streptoc. group B 779; experiment: microbe, parasite or virus in culture; format: cell-based; details: for MBC: read-out: Concentration from which subcultures no longer started; for MIC: read-out: Minimum inhibiting concentration (MHK), series dilution test
[7] = tested on: Staph. aur. PCI 1203; experiment: microbe, parasite or virus in culture; format: cell-based; details: for MBC: read-out: Concentration from which subcultures no longer started; for MIC: read-out: Minimum inhibiting concentration (MHK), series dilution test
[8] = tested on: enterococci; experiment: microbe, parasite or virus in culture; format: cell-based; details: for MIC: read-out: Minimum inhibiting concentration (MHK), series dilution test
[9] = tested on: 9 bacteria and 2 yeast strains; experiment: In vitro tests with 9 bacteria and 2 yeast strains (summary); format: cell-based; details: even with the high concentration of 500 μg/ml
[10] = tested on: streptococci group C 805; experiment: microbe, parasite or virus in culture; format: cell-based; details: for MBC: read-out: Concentration from which subcultures no longer started; for MIC: read-out: Minimum inhibiting concentration (MHK), series dilution test
[11] = tested on: Staph. aur. SG 511; experiment: microbe, parasite or virus in culture; format: cell-based; details: for MIC: read-out: Minimum inhibiting concentration (MHK), series dilution test
[12] = tested on: S. typhimurium G 46; details: in vivo
[13] = tested on: E. coli 6106; experiment: microbe, parasite or virus in culture; format: cell-based; details: for MIC: read-out: Minimum inhibiting concentration (MHK), series dilution test
[14] = tested on: Serratia marcescens strain HY/a 21
[15] = tested on: Klebs. pneum. PCI 602; experiment: microbe, parasite or virus in culture; format: cell-based; details: for MBC: read-out: Concentration from which subcultures no longer started; for MIC: read-out: Minimum inhibiting concentration (MHK), series dilution test
[16] = tested on: Ps. aeruginosa 2; experiment: microbe, parasite or virus in culture; format: cell-based; details: for MIC: read-out: Minimum inhibiting concentration (MHK), series dilution test
[17] = subcultures applied after 48 h, read after 24 h
[18] = 24 h, read-out: Concentration from which subcultures no longer started, subcultures applied after 24 h, read after 24 h
[19] = 48 h, read-out: Concentration from which subcultures no longer started, subcultures applied after 48 h, read after 48 h
[20] = read-out: Concentration from which subcultures no longer started, subcultures applied after 24 h, read after 48 h
[21] = read-out: Concentration from which subcultures no longer started, subcultures applied after 48 h, read after 24 h

## Cc1ncc([N+](=O)[O-])n1CCO [Metronidazol, reference compound]
[1]; 24 h
  MBC: > 500 µg/mL
  MIC: > 500 µg/mL
[1]; 48 h
  MBC: > 500 µg/mL
  MIC: > 500 µg/mL
[1]
  MBC: > 500 µg/mL
[1]; [17]
  Concentration from which subcultures no longer started: > 500 µg/mL
[2]
  LD50: > 2000 mg/kg
[3]; [18]
  MBC: > 500 µg/mL
[3]; 24 h
  MIC: > 500 µg/mL
[3]; [19]
  MBC: > 500 µg/mL
[3]; 48 h
  MIC: > 500 µg/mL
[3]; [20]
  MBC: > 500 µg/mL
[3]; [21]
  MBC: > 500 µg/mL
[4]; [18]
  MBC: > 500 µg/mL
[4]; 24 h
  MIC: > 500 µg/mL
[4]; [19]
  MBC: > 500 µg/mL
[4]; 48 h
  MIC: > 500 µg/mL
[4]; [20]
  MBC: > 500 µg/mL
[4]; [21]
  MBC: > 500 µg/mL
[5]; 6.25 mg/kg
  % of Animals Dying After Infection (Mean Value): 90%
[5]; 12.5 mg/kg
  % of Animals Dying After Infection (Mean Value): 80%
[5]; 25 mg/kg
  % of Animals Dying After Infection (Mean Value): 70%
[5]; 50 mg/kg
  % of Animals Dying After Infection (Mean Value): 15%
[5]; 75 mg/kg
  % of Animals Dying After Infection (Mean Value): 0%
[5]; 100 mg/kg
  % of Animals Dying After Infection (Mean Value): 4%
[5]; dose of 6.25 mg/kg, mice infected with T. foetus
  animals survived / survival rate: 10%
[6]; 24 h
  MBC: > 500 µg/mL
  MIC: > 500 µg/mL
[6]; 48 h
  MBC: > 500 µg/mL
  MIC: > 500 µg/mL
[6]
  MBC: > 500 µg/mL
[6]; [17]
  Concentration from which subcultures no longer started: > 500 µg/mL
[7]; 24 h
  MBC: > 500 µg/mL
  MIC: > 500 µg/mL
[7]; 48 h
  MBC: > 500 µg/mL
  MIC: > 500 µg/mL
[7]
  MBC: > 500 µg/mL
[7]; [17]
  Concentration from which subcultures no longer started: > 500 µg/mL
[8]; [18]
  MBC: > 500 µg/mL
[8]; 24 h
  MIC: > 500 µg/mL
[8]; [19]
  MBC: > 500 µg/mL
[8]; 48 h
  MIC: > 500 µg/mL
[8]; [20]
  MBC: > 500 µg/mL
[8]; [21]
  MBC: > 500 µg/mL
[9]
  in vitro antibacterial/antiyeast effect (in words): ineffective
[10]; 24 h
  MBC: > 500 µg/mL
  MIC: > 500 µg/mL
[10]; 48 h
  MBC: > 500 µg/mL
  MIC: > 500 µg/mL
[10]
  MBC: > 500 µg/mL
[10]; [17]
  Concentration from which subcultures no longer started: > 500 µg/mL
[11]; [18]
  MBC: > 500 µg/mL
[11]; 24 h
  MIC: > 500 µg/mL
[11]; [19]
  MBC: > 500 µg/mL
[11]; 48 h
  MIC: > 500 µg/mL
[11]; [20]
  MBC: > 500 µg/mL
[11]; [21]
  MBC: > 500 µg/mL
[12]
  Mutation frequency in test animals: 4.6 . 10^-7
[13]; Escherichia coli, 6106, 24 h, read-out: Concentration from which subcultures no longer started
  MBC: > 500 µg/mL
[13]; Escherichia coli, 6106, 24 h
  MIC: > 500 µg/mL
[13]; Escherichia coli, 6106, 48 h, read-out: Concentration from which subcultures no longer started
  MBC: > 500 µg/mL
[13]; Escherichia coli, 6106, 48 h
  MIC: > 500 µg/mL
[13]; Escherichia coli, 6106, read-out: Concentration from which subcultures no longer started
  MBC: > 500 µg/mL
[13]; [17]
  Concentration from which subcultures no longer started: > 500 µg/mL
[14]
  Mutants, Test: 5.9 × 10^2 colonies/ml
  Mutation frequency: 3.1 × 10^-6
[15]; 24 h
  MBC: > 500 µg/mL
  MIC: > 500 µg/mL
[15]; 48 h
  MBC: > 500 µg/mL
  MIC: > 500 µg/mL
[15]
  MBC: > 500 µg/mL
[15]; [17]
  Concentration from which subcultures no longer started: > 500 µg/mL
[16]; Pseudomonas aeruginosa, 2, 24 h, read-out: Concentration from which subcultures no longer started
  MBC: > 500 µg/mL
[16]; Pseudomonas aeruginosa, 2, 24 h
  MIC: > 500 µg/mL
[16]; Pseudomonas aeruginosa, 2, 48 h, read-out: Concentration from which subcultures no longer started
  MBC: > 500 µg/mL
[16]; Pseudomonas aeruginosa, 2, 48 h
  MIC: > 500 µg/mL
[16]; Pseudomonas aeruginosa, 2, read-out: Concentration from which subcultures no longer started
  MBC: > 500 µg/mL
[16]; [17]
  Concentration from which subcultures no longer started: > 500 µg/mL

Reference: patent US4051253A, “Microbicidal nitrofuryl compounds” (Byk Gulden Lomberg Chemische Fabrik GmbH, priority 1974, dated 1977)
